Experimental data taken from patent publication US6642355B2, “Endothelin-antagonizing peptide” (priority 1991, dated 2003).
Where two headings read alike, the source gives them in different places. Bridge positions count the residues as written; N and C are the ends. Square brackets hold non-standard residues; d marks the D form. Ends that are not written are not given here. Peptide text beside a SMILES is read from it. 2Nal = N[C@@H](Cc1ccc2ccccc2c1)C(=O)O

Columns and labels:
endothelin receptor [1] = biological target: T1, endothelin receptor (Bos taurus, UniProt P28088); assay: Endothelin receptor-antagonizing effect: 125I-endothelin-1 binding to bovine cerebellar tissue membrane fraction
T1 construct: from tissue; host or cells: bovine cerebellar membrane fraction
T1 sequence (P28088 27-441): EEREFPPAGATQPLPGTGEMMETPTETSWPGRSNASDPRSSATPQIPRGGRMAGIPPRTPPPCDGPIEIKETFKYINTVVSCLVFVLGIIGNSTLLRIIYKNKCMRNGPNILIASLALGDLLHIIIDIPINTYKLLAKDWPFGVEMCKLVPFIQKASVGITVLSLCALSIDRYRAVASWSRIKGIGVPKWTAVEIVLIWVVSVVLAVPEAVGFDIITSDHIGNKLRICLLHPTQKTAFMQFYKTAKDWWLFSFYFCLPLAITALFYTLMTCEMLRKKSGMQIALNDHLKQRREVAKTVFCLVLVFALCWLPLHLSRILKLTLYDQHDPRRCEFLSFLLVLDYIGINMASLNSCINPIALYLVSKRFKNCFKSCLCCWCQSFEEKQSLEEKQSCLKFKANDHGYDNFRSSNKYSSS

endothelin receptor [2] = biological target: T2, endothelin receptor (Bos taurus, UniProt P21450); assay: Endothelin receptor-antagonizing activity: 125I-endothelin-1 binding to bovine lung membrane fraction with […] Compound (I-1) added
T2 construct: the suspension was used as the membrane fraction liquid; from tissue
T2 sequence (P21450 21-427): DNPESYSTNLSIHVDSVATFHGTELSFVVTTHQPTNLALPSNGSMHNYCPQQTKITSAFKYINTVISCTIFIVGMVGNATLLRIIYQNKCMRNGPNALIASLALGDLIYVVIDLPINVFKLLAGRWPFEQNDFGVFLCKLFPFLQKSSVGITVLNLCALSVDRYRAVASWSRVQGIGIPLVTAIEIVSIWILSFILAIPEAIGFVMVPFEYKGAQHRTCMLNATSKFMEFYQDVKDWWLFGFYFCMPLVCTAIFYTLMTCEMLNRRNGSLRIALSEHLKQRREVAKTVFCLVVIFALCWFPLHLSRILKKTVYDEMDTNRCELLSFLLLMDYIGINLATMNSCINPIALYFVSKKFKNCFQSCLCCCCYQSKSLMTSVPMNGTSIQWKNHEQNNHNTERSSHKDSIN
Method: Bovine lung tissue was homogenized at 4° C. using POLYTRON (type PT10/35, manufactured by Kinematica GmbH Co.) in a buffer solution A (pH 8.3) comprising 1 mM NaHCO3, 5 mM ethylenediaminetetraacetic acid, 5 μg/ml leupeptin, 5 μg/ml pepstatin A and 40 μM phenylmethylsulfonyl fluoride.
The inhibition rate against endothelin receptor binding activity was calculated according to the following equation.
Inhibition rate=(C−A/C−B)=100 (%)

endothelin-3 = assay: Effect against airway contraction due to endothelin in anesthetized guinea pigs; format: in vivo; conditions: guinea pig; for Rate of inhibition (%) of airway contraction, earlier phase 30 seconds: 30 seconds after endothelin-3; for Rate of inhibition (%) of airway contraction, later phase 3 minutes: 3 minutes after endothelin-3
Method: The in vivo effect of the compounds according to the present invention against airway contraction was evaluated according to a slightly modified version of the method of C. Touvay et al. described in European Journal of Pharmacology, 176, 23-33, 1990. That is, male Hartley guinea pigs weighing 350 to 550 grams each which had been previously β-blocked by intravenous injection of propranolol (3 mg/kg) were anesthetized, bronchial cannula were inserted therein and fixed, and connected to an artificial respirator. Next, spontaneous breathing was stopped with 10 mg/kg Gallamine triethiodide (product of sigma Co.), administered intravenously after which artificial respiration was initiated at a determined rate. A respiration volume measuring device was connected to the bronchial cannula bypass, and the change in the air flow was measured as an indication of airway contraction. Endothelin-3 (1.5 μmol/l; product of Peptide Institute, Inc.) was intravenously injected at a dose of 0.1 ml per 100 g body weight. Airway contraction (air flow increase) was observed immediately after injection, and was followed by a diphasic airway contraction reaction with an early and late phase which peaked at 30 seconds and 3 minutes, respectively.
Rate of inhibition (%)=(1−b/a)×100 a: Airway contraction without injection of Compound (I-1) (control) b: Airway contraction with injection of Compound (I-1)

[3] = biological target: endothelin receptor of bovine cerebellar tissue (membrane fraction) (bovine); assay: 125I-endothelin-1 displacement, bovine cerebellar membrane fraction
[4] = biological target: endothelin receptor of bovine lung tissue (membrane fraction) (bovine); assay: 125I-endothelin-1 displacement, bovine lung membrane fraction with 1.5 ug/ml Compound (I-1) added
[5] = biological target: endothelin receptor of bovine cerebellar tissue (membrane fraction) (bovine); assay: 125I-endothelin-1 displacement, bovine cerebellar membrane fraction; remark: listed apart in the source
[6] = bovine cerebellar tissue membrane fraction

For `C[C@@H]1NC(=O)[C@H]([C@@H](C)O)NC(=O)CNC(=O)[C@H](Cc2c[nH]cn2)NC(=O)[C@H](Cc2c[nH]c3ccccc23)NC(=O)[C@H](CC(N)=O)NC(=O)CNC(=O)C[C@@H](C(=O)N[C@@H](Cc2c[nH]c3ccccc23)C(=O)N[C@@H](Cc2ccccc2)C(=O)N[C@@H](Cc2ccccc2)C(=O)N[C@@H](CC(N)=O)C(=O)N[C@@H](Cc2ccc(O)cc2)C(=O)N[C@@H](Cc2ccc(O)cc2)C(=O)N[C@@H](Cc2c[nH]c3ccccc23)C(=O)OCc2ccccc2)NC(=O)[C@@H]2CCCN2C1=O` [Compound I-47], the IC50 (endothelin receptor [1]; [6]) was 140 nM and the IC50 (endothelin receptor [2]) was > 470 nM.

For `CC[C@H](C)[C@H](NC(=O)[C@H](Cc1c[nH]c2ccccc12)NC(=O)[C@@H]1CC(=O)NCC(=O)N[C@@H](CC(N)=O)C(=O)N[C@@H](Cc2c[nH]c3ccccc23)C(=O)N[C@@H](Cc2c[nH]cn2)C(=O)NCC(=O)N[C@@H]([C@@H](C)O)C(=O)N[C@@H](C)C(=O)N2CCC[C@H]2C(=O)N1)C(=O)N[C@H](C(=O)N[C@@H](Cc1c[nH]c2ccccc12)C(=O)O)[C@@H](C)CC` [Compound I-27] (GNWHGTAPDWIIW-OH; lactam N-9), the IC50 (endothelin receptor [1]) was > 6000 nM.

`C[C@@H]1NC(=O)[C@H]([C@@H](C)O)NC(=O)CNC(=O)[C@H](Cc2c[nH]cn2)NC(=O)[C@H](Cc2c[nH]c3ccccc23)NC(=O)[C@H](CC(N)=O)NC(=O)CNC(=O)C[C@@H](C(=O)N[C@@H](Cc2c[nH]c3ccccc23)C(=O)N[C@@H](Cc2ccccc2)C(=O)N[C@@H](Cc2ccccc2)C(=O)N[C@@H](CC(N)=O)C(=O)N[C@@H](Cc2ccc(O)cc2)C(=O)N[C@@H](Cc2ccc(O)cc2)C(=O)N[C@@H](Cc2c[nH]c3ccccc23)C(=O)O)NC(=O)[C@@H]2CCCN2C1=O` [Compound I-1] was tested, and the “Rate of inhibition (%) of airway contraction, earlier phase 30 seconds” value (endothelin-3; 0.1 mg/kg i.v.) was 12.5%, the “Rate of inhibition (%) of airway contraction, later phase 3 minutes” value (from here on “Rate of inhibition (%) … later phase 3 minutes”) (endothelin-3; 0.1 mg/kg i.v.) was 44.0% and the “Rate of inhibition (%) of airway contraction, earlier phase 30 seconds” value (endothelin-3; 0.3 mg/kg i.v.) was 46.0%. For the same molecule, the “Rate of inhibition (%) … later phase 3 minutes” value (endothelin-3; 0.3 mg/kg i.v.) was 52.7%, the “Rate of inhibition (%) of airway contraction, earlier phase 30 seconds” value (endothelin-3; 1.0 mg/kg i.v.) was 91.8% and the “Rate of inhibition (%) … later phase 3 minutes” value (endothelin-3; 1.0 mg/kg i.v.) was 78.2%.

With `CC[C@H](C)[C@H](NC(=O)[C@H](CC(=O)O)NC(=O)[C@H](CC(C)C)NC(=O)[C@H](Cc1c[nH]cn1)NC(=O)[C@H](C)NC(=O)[C@H](Cc1ccccc1)NC(=O)[C@H](Cc1ccc(O)cc1)NC(=O)[C@@H](NC(=O)[C@H](Cc1c[nH]c2ccccc12)NC(=O)[C@H](CC(=O)O)NC(=O)[C@@H]1CCCN1C(=O)[C@H](C)NC(=O)[C@@H](NC(=O)CNC(=O)[C@H](Cc1c[nH]cn1)NC(=O)[C@H](Cc1c[nH]c2ccccc12)NC(=O)[C@H](CC(N)=O)NC(=O)CN)[C@@H](C)O)C(C)C)C(=O)N[C@H](C(=O)N[C@@H](Cc1c[nH]c2ccccc12)C(=O)O)[C@@H](C)CC` [Compound I-26] the IC50 (endothelin receptor [1]; [6]) was < 0.13 nM.

For `CC[C@H](C)[C@H](NC(=O)[C@@H](NC(=O)[C@H](CC(=O)O)NC(=O)[C@H](CCC(N)=O)NC(=O)[C@H](Cc1c[nH]cn1)NC(=O)[C@H](C)NC(=O)[C@H](Cc1ccccc1)NC(=O)[C@H](Cc1ccc(O)cc1)NC(=O)[C@H](CC(C)C)NC(=O)[C@H](Cc1c[nH]c2ccccc12)NC(=O)[C@H](CC(=O)O)NC(=O)[C@@H]1CCCN1C(=O)[C@H](C)NC(=O)[C@@H](NC(=O)CNC(=O)[C@H](Cc1c[nH]cn1)NC(=O)[C@H](Cc1c[nH]c2ccccc12)NC(=O)[C@H](CC(N)=O)NC(=O)CN)[C@@H](C)O)C(C)C)C(=O)N[C@@H](Cc1c[nH]c2ccccc12)C(=O)O` [Compound I-38], the IC50 (endothelin receptor [1]) was 0.33 nM.

B1: Compound (I-17) (peptide)
peptide: GNWHGTAPDWFFNYY
modifications: lactam N-9
Work on B1 yielded an IC50 [3] of 54 nM.

B2: Compound (I-18) (peptide)
peptide: GNWHGTAPDWFFNYYWW
modifications: lactam N-9
Work on B2 yielded an IC50 [3] of 36 nM.

B3: Compound (I-19) (peptide)
peptide: GNWHGTAPDWFFNYYWWFFNYYW
modifications: lactam N-9
B3 showed an IC50 [3] of 370 nM.

B4: Compound (I-20) (peptide)
peptide: GNWHGTAPDWFFNYYWVYFAHLDIIW
modifications: lactam N-9
Molecule B4 has an IC50 [3] of 300 nM.

B5: Compound (I-45) (peptide)
peptide: GNWHGTAPDWFFNYY
modifications: lactam Gly 1 N-terminus to Asp 9 side chain; C-terminal carboxyl of Tyr 15 amidated with Trn, 2-(3-indolyl)ethylamine
In the case of B5, the IC50 [3] is reported as 50 nM and the IC50 [4] is reported as 300 nM.

B6: Compound (I-49) (peptide)
peptide: GNWHGTAPDWFFNYY[2Nal]-OH
modifications: lactam N-9
Work on B6 yielded an IC50 [3] of 6.3 nM.

B7: Compound (I-3) (peptide)
chain: GNWHGTSPDWFFNYYW
modifications: not checked
For B7, the IC50 [5] was 5 nM.
